Results: ChEMBL document CHEMBL4138123, “Design, synthesis and biological evaluation of novel pyrazolochalcones as potential modulators of PI3K/Akt/mTOR pathway and inducers of apoptosis in breast cancer cells” (Eur J Med Chem, 2017)

Assays:
Type in all cases: functional
[1] = system: MOLT-4; assay: Cytotoxicity against human MOLT4 cells assessed as growth inhibition after 48 hrs by sulforhodamine B assay; details: MOLT-4, 48 h
[2] = system: RPMI-8226; assay: Cytotoxicity against human RPMI8226 cells assessed as growth inhibition after 48 hrs by sulforhodamine B assay; details: RPMI-8226, 48 h
[3] = system: NCI-H23; assay: Cytotoxicity against human NCI-H23 cells assessed as growth inhibition after 48 hrs by sulforhodamine B assay; details: NCI-H23, 48 h
[4] = system: PC-3; assay: Cytotoxicity against human PC3 cells assessed as growth inhibition after 48 hrs by sulforhodamine B assay; details: PC-3, 48 h
[5] = system: ACHN; assay: Cytotoxicity against human ACHN cells assessed as cell growth at 0.01 uM after 48 hrs by sulforhodamine B assay relative to control; details: read-out: Activity
[6] = system: 786-0; assay: Cytotoxicity against human 786-0 cells assessed as cell growth at 0.01 uM after 48 hrs by sulforhodamine B assay relative to control; details: 786-0, 48 h, read-out: Activity
[7] = system: OVCAR-8; assay: Cytotoxicity against human OVCAR8 cells assessed as cell growth at 0.01 uM after 48 hrs by sulforhodamine B assay relative to control; details: OVCAR-8, 48 h, read-out: Activity
[8] = system: IGROV-1; assay: Cytotoxicity against human IGROV1 cells assessed as cell growth at 0.01 uM after 48 hrs by sulforhodamine B assay relative to control; details: IGROV-1, 48 h, read-out: Activity
[9] = system: SK-MEL-28; assay: Cytotoxicity against human SK-MEL-28 cells assessed as cell growth at 0.01 uM after 48 hrs by sulforhodamine B assay relative to control; details: SK-MEL-28, 48 h, read-out: Activity
[10] = system: U-251; assay: Cytotoxicity against human U251 cells assessed as cell growth at 0.01 uM after 48 hrs by sulforhodamine B assay relative to control; details: U-251, 48 h, read-out: Activity
[11] = system: HCT-15; assay: Cytotoxicity against human HCT15 cells assessed as cell growth at 0.1 uM after 48 hrs by sulforhodamine B assay relative to control; details: HCT-15, 48 h, read-out: Activity
[12] = system: MDA-MB-435; assay: Cytotoxicity against human MDA-MB-435 cells assessed as cell growth at 0.1 uM after 48 hrs by sulforhodamine B assay relative to control; details: MDA-MB-435, 48 h, read-out: Activity
[13] = system: OVCAR-5; assay: Cytotoxicity against human OVCAR5 cells assessed as cell growth at 0.1 uM after 48 hrs by sulforhodamine B assay relative to control; details: OVCAR-5, 48 h, read-out: Activity
[14] = system: SK-OV-3; assay: Cytotoxicity against human SKOV3 cells assessed as cell growth at 0.1 uM after 48 hrs by sulforhodamine B assay relative to control; details: SK-OV-3, 48 h, read-out: Activity
[15] = system: 786-0; assay: Cytotoxicity against human 786-0 cells assessed as cell growth at 0.1 uM after 48 hrs by sulforhodamine B assay relative to control; details: 786-0, 48 h, read-out: Activity
[16] = system: RXF 393; assay: Cytotoxicity against human RXF393 cells assessed as cell growth at 0.1 uM after 48 hrs by sulforhodamine B assay relative to control; details: RXF 393, 48 h, read-out: Activity
[17] = system: UO-31; assay: Cytotoxicity against human UO31 cells assessed as cell growth at 0.1 uM after 48 hrs by sulforhodamine B assay relative to control; details: UO-31, 48 h, read-out: Activity
[18] = system: MDA-MB-231; assay: Cytotoxicity against human MDA-MB-231 cells assessed as cell growth at 0.1 uM after 48 hrs by sulforhodamine B assay relative to control; details: MDA-MB-231, 48 h, read-out: Activity
[19] = system: K562; assay: Cytotoxicity against human K562 cells assessed as cell growth at 1 uM after 48 hrs by sulforhodamine B assay relative to control; details: K562, 48 h, read-out: Activity
[20] = system: HCC 2998; assay: Cytotoxicity against human HCC2998 cells assessed as cell growth at 1 uM after 48 hrs by sulforhodamine B assay relative to control; details: HCC 2998, 48 h, read-out: Activity
[21] = system: HCT-15; assay: Cytotoxicity against human HCT15 cells assessed as cell growth at 1 uM after 48 hrs by sulforhodamine B assay relative to control; details: HCT-15, 48 h, read-out: Activity
[22] = system: SNB-19; assay: Cytotoxicity against human SNB19 cells assessed as cell growth at 1 uM after 48 hrs by sulforhodamine B assay relative to control; details: SNB-19, 48 h, read-out: Activity
[23] = system: UACC-62; assay: Cytotoxicity against human UACC62 cells assessed as cell growth at 1 uM after 48 hrs by sulforhodamine B assay relative to control; details: UACC-62, 48 h, read-out: Activity
[24] = system: 786-0; assay: Cytotoxicity against human 786-0 cells assessed as cell growth at 1 uM after 48 hrs by sulforhodamine B assay relative to control; details: 786-0, 48 h, read-out: Activity
[25] = system: A498; assay: Cytotoxicity against human A498 cells assessed as cell growth at 1 uM after 48 hrs by sulforhodamine B assay relative to control; details: A498, 48 h, read-out: Activity
[26] = system: RXF 393; assay: Cytotoxicity against human RXF393 cells assessed as cell growth at 1 uM after 48 hrs by sulforhodamine B assay relative to control; details: RXF 393, 48 h, read-out: Activity
[27] = system: MOLT-4; assay: Cytotoxicity against human MOLT4 cells assessed as cell growth at 10 uM after 48 hrs by sulforhodamine B assay relative to control; details: MOLT-4, 48 h, read-out: Activity
[28] = system: IGROV-1; assay: Cytotoxicity against human IGROV1 cells assessed as cell growth at 10 uM after 48 hrs by sulforhodamine B assay relative to control; details: IGROV-1, 48 h, read-out: Activity
[29] = system: OVCAR-4; assay: Cytotoxicity against human OVCAR4 cells assessed as cell growth at 10 uM after 48 hrs by sulforhodamine B assay relative to control; details: OVCAR-4, 48 h, read-out: Activity
[30] = system: NCI/ADR-RES; assay: Cytotoxicity against human NCI/ADR-RES cells assessed as cell growth at 10 uM after 48 hrs by sulforhodamine B assay relative to control; details: read-out: Activity
[31] = system: TK-10; assay: Cytotoxicity against human TK10 cells assessed as cell growth at 10 uM after 48 hrs by sulforhodamine B assay relative to control; details: TK-10, 48 h, read-out: Activity
[32] = system: HCC 2998; assay: Cytotoxicity against human HCC2998 cells assessed as cell growth at 100 uM after 48 hrs by sulforhodamine B assay relative to control; details: HCC 2998, 48 h, read-out: Activity
[33] = system: HCT-15; assay: Cytotoxicity against human HCT15 cells assessed as cell growth at 100 uM after 48 hrs by sulforhodamine B assay relative to control; details: HCT-15, 48 h, read-out: Activity
[34] = system: HT-29; assay: Cytotoxicity against human HT-29 cells assessed as cell growth at 100 uM after 48 hrs by sulforhodamine B assay relative to control; details: HT-29, 48 h, read-out: Activity
[35] = system: SK-MEL-28; assay: Cytotoxicity against human SK-MEL-28 cells assessed as cell growth at 100 uM after 48 hrs by sulforhodamine B assay relative to control; details: SK-MEL-28, 48 h, read-out: Activity
[36] = system: BT-549; assay: Cytotoxicity against human BT549 cells assessed as cell growth at 100 uM after 48 hrs by sulforhodamine B assay relative to control; details: BT-549, 48 h, read-out: Activity
[37] = read-out: LC50 (the source's name)

COc1ccc(-c2cc(/C=C/C(=O)c3ccc(N)cc3)[nH]n2)cc1
GI50 [1]: 2.32 µM | TGI [1]: 9.48 µM | CC50 [1, 37]: > 100 µM | GI50 [2]: 0.6 µM | LC50 [2]: 29.4 µM | TGI [2]: 3.22 µM | GI50 [3]: 3.22 µM | TGI [3]: 13.1 µM | CC50 [3, 37]: 68.4 µM | GI50 [4]: 2.42 µM | LC50 [4]: 39.8 µM | TGI [4]: 10.1 µM | growth at 0.01 µM [5]: 103% | growth at 0.01 µM [6]: 96% | growth at 0.01 µM [7]: 96% | growth at 0.01 µM [8]: 98% | growth at 0.01 µM [9]: 98% | growth at 0.01 µM [10]: 97% | growth at 0.1 µM [11]: 100% | growth at 0.1 µM [12]: 103% | growth at 0.1 µM [13]: 95% | growth at 0.1 µM [14]: 103% | growth at 0.1 µM [15]: 95% | growth at 0.1 µM [16]: 88% | growth at 0.1 µM [17]: 82% | growth at 0.1 µM [18]: 89% | growth at 1 µM [19]: 58% | growth at 1 µM [20]: 100% | growth at 1 µM [21]: 50% | growth at 1 µM [22]: 75% | growth at 1 µM [23]: 79% | growth at 1 µM [24]: 88% | growth at 1 µM [25]: 90% | growth at 1 µM [26]: 78% | growth at 10 µM [27]: -2% | growth at 10 µM [28]: -21% | growth at 10 µM [29]: -6% | growth at 10 µM [30]: 9% | growth at 10 µM [31]: 12% | growth at 100 µM [32]: -93% | growth at 100 µM [33]: -59% | growth at 100 µM [34]: -56% | growth at 100 µM [35]: -81% | growth at 100 µM [36]: -61%
